Results published in ChEMBL document CHEMBL3638480, “Inhibitors” (2013).

Molecular target: Glutaminyl-peptide cyclotransferase (Homo sapiens, UniProt Q16769)
Experiment: Spectrophotometic Assay: Spectrophotometic Assay: This novel assay was used to determine the kinetic parameters for most of the QC substrates. QC activity was analyzed spectrophotometrically using a continuous method, that was derived by adapting a previous discontinuous assay (Bateman, R.C.J. 1989 J Neurosci Methods 30, 23-28).

Chain of Glutaminyl-peptide cyclotransferase (Q16769 whole entry): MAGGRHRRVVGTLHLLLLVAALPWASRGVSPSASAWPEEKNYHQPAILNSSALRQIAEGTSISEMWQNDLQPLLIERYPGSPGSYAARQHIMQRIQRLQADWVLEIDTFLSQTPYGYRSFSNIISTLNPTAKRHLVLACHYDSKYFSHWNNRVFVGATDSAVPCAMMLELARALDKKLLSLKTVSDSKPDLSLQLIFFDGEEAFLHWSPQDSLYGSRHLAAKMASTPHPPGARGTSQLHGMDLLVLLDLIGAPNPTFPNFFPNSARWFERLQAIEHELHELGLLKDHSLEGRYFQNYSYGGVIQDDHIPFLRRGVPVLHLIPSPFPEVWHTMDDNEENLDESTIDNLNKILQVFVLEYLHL

Row | SMILES | IC50
1 | CCCOc1ccc(C2CNC(=O)N2c2ccc3[nH]cnc3c2)c(F)c1 (configuration not stated) | < 10 µM
2 | O=C1NCC(c2ccc(N3CCCCC3)cc2)N1c1ccn2ccnc2c1 (configuration not stated) | < 10 µM
3 | CN1CCC(c2ccc(C3COC(=O)N3c3ccc4[nH]cnc4c3)cc2)CC1 (configuration not stated) | < 10 µM
4 | COc1cc(F)c(C2COC(=O)N2c2ccc3[nH]cnc3c2)c(F)c1 (configuration not stated) | < 10 µM
5 | CC(c1ccccc1)C1COC(=O)N1c1ccc2[nH]cnc2c1 (configuration not stated) | < 10 µM
6 | O=C1OCC(c2ccc(OC3CCCCC3)cc2)N1c1ccc2[nH]cnc2c1 (configuration not stated) | < 10 µM
7 | O=C1OCC(c2ccc(N3CCCC3)cc2)N1c1ccc2[nH]cnc2c1 (configuration not stated) | < 10 µM
8 | O=C1OCC(c2ccc(C3CCC(O)CC3)cc2)N1c1ccc2[nH]cnc2c1 (configuration not stated) | < 10 µM
9 | O=C1OC[C@H](CCc2ccccc2)N1c1ccc2[nH]cnc2c1 | < 10 µM
10 | O=C1NCC(c2ccc(C3CCCCC3)cc2)N1c1ccc2[nH]cnc2c1 (configuration not stated) | < 10 µM
11 | O=C1CCC(c2ccc(C3COC(=O)N3c3ccc4[nH]cnc4c3)cc2)CC1 (configuration not stated) | < 10 µM
12 | O=C1NCC(c2ccc(Cl)cc2)N1c1ccc2[nH]cnc2c1 (configuration not stated) | < 10 µM
13 | O=C1OCC(c2ccc(C3CCOCC3)cc2)N1c1ccc2[nH]cnc2c1 (configuration not stated) | < 10 µM
14 | O=C1OC[C@H](c2ccc(N3CCCCC3)cc2)N1c1ccn2ccnc2c1 | < 10 µM
15 | O=C1OC[C@H](c2ccc(N3CCOCC3)cc2)N1c1ccc2[nH]cnc2c1 | < 10 µM
16 | CCCOc1ccc([C@H]2COC(=O)N2c2cc(C)c3[nH]cnc3c2)cc1 | < 10 µM
17 | O=C1NC[C@H](c2ccc(C3CCC(F)(F)CC3)cc2)N1c1ccc2[nH]cnc2c1 | < 10 µM
18 | O=C1OC[C@H](c2ccc(C3CCCCC3)cc2)N1c1ccn2ccnc2c1 | < 10 µM
19 | CCN(CC)c1ccc([C@H]2CNC(=O)N2c2ccc3[nH]cnc3c2)cc1 | < 10 µM
20 | O=C1OC[C@H](c2ccc(-c3ccccc3)cc2)N1c1ccc2[nH]cnc2c1 | < 10 µM
21 | CN1CCN(c2cccc([C@H]3COC(=O)N3c3ccc4nc[nH]c4c3)c2)CC1 | < 10 µM
22 | O=C1OC[C@H](C2CCN(c3ccccc3)CC2)N1c1ccc2[nH]cnc2c1 | < 10 µM
23 | O=C1OC[C@H](c2ccc(N3CCN(c4ccccc4)CC3)cc2)N1c1ccn2ccnc2c1 | < 10 µM
24 | O=C1OC[C@H](c2cccc(N3CCCCC3)c2)N1c1ccc2[nH]cnc2c1 | < 10 µM
25 | CN1CCC(c2ccc([C@H]3CNC(=O)N3c3ccc4[nH]cnc4c3)cc2)CC1 | < 10 µM
26 | COCCCc1ccc([C@H]2COC(=O)N2c2ccc3[nH]cnc3c2)cc1 | < 10 µM
27 | O=C1OC[C@H](c2ccccc2)N1c1cc(F)c2[nH]cnc2c1 | < 10 µM

Now from value to compound:

Row | IC50 | SMILES
28 | < 10 µM | O=C1NCC(c2ccc(C3CCCCC3)cc2)N1c1ccn2ccnc2c1 (configuration not stated)
29 | < 10 µM | O=C1NCC(c2ccc(C3CCC(N4CCOCC4)CC3)cc2)N1c1ccc2[nH]cnc2c1 (configuration not stated)
30 | < 10 µM | O=C1NCC(c2ccc(C3CCOCC3)cc2)N1c1ccc2[nH]cnc2c1 (configuration not stated)
31 | < 10 µM | O=C1CCC(c2ccc(C3CNC(=O)N3c3ccc4[nH]cnc4c3)cc2)CC1 (configuration not stated)
32 | < 10 µM | O=C1NCC(c2cccc(N3CCCCC3)c2)N1c1ccn2ccnc2c1 (configuration not stated)
33 | < 10 µM | O=C1OCC(c2ccc(C3CCC(N4CCOCC4)CC3)cc2)N1c1ccc2[nH]cnc2c1 (configuration not stated)
34 | < 10 µM | O=C1NCC(c2ccc(N3CCCC3)cc2)N1c1ccn2ccnc2c1 (configuration not stated)
35 | < 10 µM | CC(C)Oc1ccc(C[C@H]2COC(=O)N2c2ccc3[nH]cnc3c2)cc1
36 | < 10 µM | COC1CCC(c2ccc(C3COC(=O)N3c3ccc4[nH]cnc4c3)cc2)CC1 (configuration not stated)
37 | < 10 µM | O=C1OC[C@H](CC2CCCCC2)N1c1ccc2[nH]cnc2c1
38 | < 10 µM | CCCOc1ccc(C[C@H]2COC(=O)N2c2ccc3[nH]cnc3c2)cc1
39 | < 10 µM | CN(C)CCCc1ccc([C@@H]2COC(=O)N2c2ccc3[nH]cnc3c2)cc1
40 | < 10 µM | O=C1NCC(c2ccc(N3CCOCC3)cc2)N1c1ccc2[nH]cnc2c1 (configuration not stated)
41 | < 10 µM | CN(C)CCOc1ccc([C@H]2COC(=O)N2c2ccc3[nH]cnc3c2)cc1
42 | < 10 µM | O=C1OC[C@H](C2CCCCC2)N1c1ccc2[nH]cnc2c1
43 | < 10 µM | O=C1OC[C@H](c2ccc(N(C3CC3)C3CC3)cc2)N1c1ccc2[nH]cnc2c1
44 | < 10 µM | O=C1OC[C@H](c2cccc(N3CCOCC3)c2)N1c1ccc2[nH]cnc2c1
45 | < 10 µM | COCCN(CCOC)c1ccc([C@H]2COC(=O)N2c2ccc3[nH]cnc3c2)cc1
46 | < 10 µM | O=C1OC[C@H](c2ccc(N3CCOCC3)cc2)N1c1ccn2ccnc2c1
47 | < 10 µM | O=C1OC[C@H](c2ccc(N3CCCCC3)cc2)N1c1ccc2[nH]cnc2c1
48 | < 10 µM | CCN(CC)c1ccc([C@H]2COC(=O)N2c2ccc3[nH]cnc3c2)cc1
49 | < 10 µM | Cc1cc(N2C(=O)OC[C@@H]2c2ccccc2)cc2nc[nH]c12
50 | < 10 µM | O=C1OC[C@H](C2CCC(c3ccccc3)CC2)N1c1ccc2[nH]cnc2c1 (some centres not stated)
51 | < 10 µM | COCCOc1ccc([C@H]2COC(=O)N2c2ccc3[nH]cnc3c2)cc1
52 | < 10 µM | CCCOc1ccc([C@H]2OC(=O)N(c3ccc4nc[nH]c4c3)[C@H]2c2ccc(OCCC)cc2)cc1 (single isomer, unassigned)
